One experiment addresses AMPA receptor. Description: AMPA receptor binding affinity (in vitro). To be noted: Table 1. An excerpt:
In Vitro activity (receptor affinity):
(§1) The test results obtained by testing the compounds of the invention for their in-vitro AMPA receptor affinity and their ability to inhibit GABA release are presented in the following table: […]

Experiment [1] deals with cultured cerebral cortex neurons. Put plainly: 3H-GABA release, cultured cerebral cortex neurons. The class given is cell-based. To be noted: Cerebral cortex neuron; inhibition of stimulated 3H-GABA release, mouse cortical neurons, Table 1.
Source text: The compounds of the invention have also been tested for their ability to inhibit GABA release from cultured cerebral cortex neurons in the following test:
^3 H-GABA Release, Cortical Neurons
Background: Neurons which express receptors for excitatory amino acids can be depolarized by such compounds and this depolarization will ultimately lead to a release of transmitter substance from the neurons. Cultured neurons obtained from 15-day-old mouse embryo cortex are mainly GABAergic and express all types of excitatory amino acid receptors. This means that they can be stimulated by high potassium or by the excitatory amino acids, NMDA, AMPA and kainate to release their neurotransmitter GABA.
^3 H-GABA may be used to label the GABA transmitter pool in the neurons and the release of ^3 H-GABA from the neurons may be used as a simple functional model for studies of the effects of excitatory amino acids and their antagonists.
Method: Cerebral cortices of 16-day-old mouse embryos are chopped in 0.4×0.4 mm cubes. The tissue is dissociated by mild trypsinization (0.1% (wt/vol) trypsin, 37° C., 15 min) and subsequently inoculated into poly-L-lysine-coated 3-cm Petri dishes containing a slightly modified DMEM (24.5 mM KCI, 30 mM glucose) supplemented with p-aminobenzoate (7 μM), insulin (100 mU/L) and 10% (vol/vol) horse serum. Cells are maintained in culture for 5-7 days with the addition of the antimitotic agent cytosine arbinoside (40 μM) from day 2 in vitro to prevent glial profileration. For further details and references, see Drejer et al. Exp. Brain Res. 47, 259 (1982).
Release experiments are performed using the model described by Drejer et al. Life Sci. 38, 2077 (1986). Cerebral cortex neurons cultured in Petri dishes (30 mm) are added 100 μM γ-vinyl-GABA one hour before the experiment in order to inhibit degradation of GABA in the neurons. 30 min before the experiment 5 μCi ^3 H-GABA is added to each culture and after this preloading period the cell monolayer at the bottom of the dish is covered with a piece of nylon mesh to protect the cells against mechanical damage and to facilitate dispersion of medium over the cell layer. The preloading medium is removed and the Petri dishes are placed in a superfusion system consisting of a peristaltic pump continously delivering thermostated 37° C. superfusion medium HEPES buffered saline (HBS): 10 mM HEPES, 135 mM NaCl, 5 mM KCI, 0.6 mM MgSO4, 1.0 mM CaCl2 and 6 mM D-glucose; pH 7.4) from a reservoir to the top of the slightly tilted Petri dish. The medium is continously collected from the lower part of the dish and delivered to a fraction collector. Initially, the cells are superfused with HBS for 15 min (flow rate 2 ml/min). Then the cells are stimulated for 30 sec every 4 min by changing the superfusion medium from HBS to a corresponding medium containing […].
Test subtances are dissolved in 50% DMSO, 48% ethanol. The final DMSO and ethanol concentration in the assay must not exceed 0.1%.
The stimulated release of ^3 H-GABA (cpm) are corrected for the mean basal release(cpm) before and after stimulation.
The stimulated release in the presence of antagonists are expressed relative to the stimulated release and the IC50 value for the antagonist is calculated (the concentration (μM) of the test substance which inhibit 50% of the stimulated ^3 H-GABA release).
as §1

SMILES strings stand for the structures.

A word on the IC50: it is the midpoint of a concentration-inhibition curve. The low end stands for greater potency in that assay, the high end for weaker potency in that assay. On to `CCN1Cc2c(-c3ccc(S(=O)(=O)N(C)C)cc3)cc3c(c2C1)NC(=O)C3=NO` [7-ethyl-5-(4-(N,N-dimethylsulphamoyl)phenyl)-1,6,7,8-tetrahydrobenzo[1,2-b:3,4-c]dipyrrole-2,3-dione-3-oxime], for which the figures for the IC50 (at AMPA receptor; in experiment [1]) were 1600 nM and 4500 nM, respectively.
As for `CCN1Cc2c(-c3ccc(S(=O)(=O)N4CCOCC4)cc3)cc3c(c2C1)NC(=O)C3=NO` [7-ethyl-5-(4-(morpholinosulfonyl)phenyl)-1,6,7,8-tetrahydrobenzo[1,2-b:3,4-c]dipyrrole-2,3-dione-3-oxime], the results for the IC50 (at AMPA receptor; in experiment [1]) were 140 nM and 500 nM, respectively.
Regarding `CON=C1C(=O)Nc2c1cc(-c1ccc(S(=O)(=O)N3CCOCC3)cc1)c1c2CCN(C)C1` [7-methyl-5-(4-(morpholinosulfonyl)phenyl)-6,7,8,9-tetrahydro-1H-pyrrolo[2,3-f]isoquinoline-2,3-dione-3-O-methyloxime], the IC50 on AMPA receptor worked out at 220 nM; in experiment [1] it was 1600 nM.
As to `CN1CCc2c(c(-c3ccc(S(=O)(=O)N4CCOCC4)cc3)cc3c2NC(=O)C3=NO)C1` [7-methyl-5-(4-(morpholinosulfonyl)phenyl)-6,7,8,9-tetrahydro-1H-pyrrolo[2,3-f]isoquinoline-2,3-dione-3-oxime], the IC50 on AMPA receptor amounted to 110 nM; in experiment [1], 250 nM.
As for `CN1CCc2c(-c3ccc(S(=O)(=O)N4CCN(CCO)CC4)cc3)cc3c(c2C1)NC(=O)C3=NO` [8-methyl-5-(4-(4-(2-hydroxyethyl)piperazinosulfonyl)-phenyl)-6,7,8,9-tetrahydro-1H-pyrrolo[3,2-h]-isoquinoline-2,3-dione-3-oxime], the IC50 was determined as 19 nM on AMPA receptor and 100 nM in experiment [1].
Turning to `CN1CCc2c(-c3ccc(S(=O)(=O)N4CCN(Cc5ccc6c(c5)OCO6)CC4)cc3)cc3c(c2C1)NC(=O)C3=NO` [8-methyl-5-(4-(4-(3,4-methylenedioxybenzyl)-piperazinosulfonyl)phenyl)-6,7,8,9-tetrahydro-1H-pyrrolo[3,2-h]-isoquinoline-2,3-dione-3-oxime], the results for the IC50 (on AMPA receptor; in experiment [1]) were 130 nM and 500 nM, respectively.
The matching figures for `CN1CCc2c(-c3ccc(S(=O)(=O)N4CCN(c5ccc(Cl)cc5)CC4)cc3)cc3c(c2C1)NC(=O)C3=NO` [8-methyl-5-(4-(4-(4-chlorophenyl)piperazinosulfonyl)-phenyl)-6,7,8,9-tetrahydro-1H-pyrrolo[3,2-h]-isoquinoline-2,3-dione-3-oxime]: 68 nM and 877 nM.
Consider `CN1CCc2c(-c3ccc(S(=O)(=O)N(CCO)CCO)cc3)cc3c(c2C1)NC(=O)C3=NO` [8-methyl-5-(4-(N,N-bis(2-hydroxyethyl)sulphamoyl)-phenyl)-6,7,8,9-tetrahydro-1H-pyrrolo[3,2-h]-isoquinoline-2,3-dione-3-oxime], for which the IC50 at AMPA receptor turned out to be 50 nM; in experiment [1], 130 nM.
Take `CCN(CC)CCN(CCN(CC)CC)S(=O)(=O)c1ccc(-c2cc3c(c4c2CCN(C)C4)NC(=O)C3=NO)cc1` [8-methyl-5-(4-(N,N-di(2-(N,N-diethylamino)ethyl)-sulphamoyl)-phenyl)-6,7,8,9-tetrahydro-1H-pyrrolo[3,2-h]-isoquinoline-2,3-dione-3-oxime]: the IC50 turned out to be 38 nM at AMPA receptor and 450 nM in experiment [1].
For `CN1CCc2c(-c3ccc(S(=O)(=O)N(Cc4ccccc4)Cc4ccccc4)cc3)cc3c(c2C1)NC(=O)C3=NO` [8-methyl-5-(4-(N,N-dibenzylsulphamoyl)-phenyl)-6,7,8,9-tetrahydro-1H-pyrrolo[3,2-h]-isoquinoline-2,3-dione-3-oxime], the figures for the IC50 (on AMPA receptor; in experiment [1]) were 540 nM and 1900 nM, respectively.
Take `CCN(CC)S(=O)(=O)c1ccc(-c2cc3c(c4c2CCN(C)C4)NC(=O)C3=NO)cc1` [8-methyl-5-(4-(N,N-diethylsulphamoyl)-phenyl)-6,7,8,9-tetrahydro-1H-pyrrolo[3,2-h]-isoquinoline-2,3-dione-3-oxime]: the 50% inhibitory concentration (IC50) came to 18 nM on AMPA receptor and 160 nM in experiment [1].
Consider `CN1CCc2c(-c3ccc(C(=O)N(C)C)cc3)cc3c(c2C1)NC(=O)C3=NO` [8-methyl-5-(4-(N,N-dimethylcarbamoyl)-phenyl)-6,7,8,9-tetrahydro-1H-pyrrolo[3,2-h]-isoquinoline-2,3-dione-3-oxime], for which the IC50 on AMPA receptor was found to be 140 nM; in experiment [1] it was 190 nM.
`CON=C1C(=O)Nc2c1cc(-c1ccc(S(=O)(=O)N(C)C)cc1)c1c2CN(C)CC1` [8-methyl-5-(4-(N,N-dimethylsulphamoyl)-phenyl)-6,7,8,9-tetrahydro-1H-pyrrolo[3,2-h]-isoquinoline-2,3-dione-3-O-methyloxime]: the results for the IC50 (at AMPA receptor; in experiment [1]) were 200 nM and 1700 nM, respectively.
As to `CN1CCc2c(-c3ccc(S(=O)(=O)N(C)C)cc3)cc3c(c2C1)NC(=O)C3=NOC(C)(C)C` [8-methyl-5-(4-(N,N-dimethylsulphamoyl)-phenyl)-6,7,8,9-tetrahydro-1H-pyrrolo[3,2-h]-isoquinoline-2,3-dione-3-O-t-butyloxime], the values for the IC50 (on AMPA receptor; in experiment [1]) were 470 nM and 5500 nM, respectively.
For the compound `CN1CCc2c(-c3ccc(S(=O)(=O)NCCO)cc3)cc3c(c2C1)NC(=O)C3=NO` [8-methyl-5-(4-(N-(2-hydroxyethyl)sulphamoyl)-phenyl)-6,7,8,9-tetrahydro-1H-pyrrolo[3,2-h]-isoquinoline-2,3-dione-3-oxime], the IC50 stood at 40 nM on AMPA receptor and 330 nM in experiment [1].
As to `CCOC(=O)CNS(=O)(=O)c1ccc(-c2cc3c(c4c2CCN(C)C4)NC(=O)C3=NO)cc1` [8-methyl-5-(4-(N-(ethoxycarbonylmethyl)-sulphamoyl)phenyl)-6,7,8,9-tetrahydro-1H-pyrrolo[3,2-h]isoquinoline-2,3-dione-3-oxime], the IC50 was 34 nM at AMPA receptor and 340 nM in experiment [1].
Turning to `CN(C)CCN(C)S(=O)(=O)c1ccc(-c2cc3c(c4c2CCN(C)C4)NC(=O)C3=NO)cc1` [8-methyl-5-(4-(N-methyl-N-(2-(N,N-dimethylamino)-ethyl)sulphamoyl)-phenyl)-6,7,8,9-tetrahydro-1H-pyrrolo[3,2-h]-isoquinoline-2,3-dione-3-oxime], the IC50 worked out at 190 nM on AMPA receptor and 310 nM in experiment [1].
`CN1CCc2c(-c3ccc(S(=O)(=O)Nc4ccccc4)cc3)cc3c(c2C1)NC(=O)C3=NO` [8-methyl-5-(4-(N-phenylsulphamoyl)-phenyl)-6,7,8,9-tetrahydro-1H-pyrrolo[3,2-h]-isoquinoline-2,3-dione-3-oxime]: the IC50 on AMPA receptor was 66 nM; in experiment [1], 380 nM.
Regarding `CN1CCc2c(-c3ccc(S(=O)(=O)NC(C)(C)C)cc3)cc3c(c2C1)NC(=O)C3=NO` [8-methyl-5-(4-(N-t-butylsulphamoyl)-phenyl)-6,7,8,9-tetrahydro-1H-pyrrolo[3,2-h]-isoquinoline-2,3-dione-3-oxime], the IC50 was determined as 30 nM at AMPA receptor and 240 nM in experiment [1].
As for `CCOC(=O)c1ccc(-c2cc3c(c4c2CCN(C)C4)NC(=O)C3=NO)cc1` [8-methyl-5-(4-(ethoxycarbonyl)phenyl)-6,7,8,9 tetrahydro-1H-pyrrolo[3,2-h]-isoquinoline-2,3-dione-3-oxime], the IC50 came to 100 nM at AMPA receptor and 3700 nM in experiment [1].
For the compound `CN1CCc2c(-c3ccc(S(=O)(=O)N4CCOCC4)cc3)cc3c(c2C1)NC(=O)C3=O` [8-methyl-5-(4-(morpholinosulfonyl)-phenyl)-6,7,8,9-tetrahydro-1H-pyrrolo[3,2-h]-isoquinoline-2,3-dione], the IC50 stood at 820 nM at AMPA receptor and 2160 nM in experiment [1].
With `CN1CCc2c(-c3ccc(S(=O)(=O)N4CCOCC4)cc3)cc3c(c2C1)NC(=O)C3=NO` [8-methyl-5-(4-(morpholinosulfonyl)phenyl)-6,7,8,9-tetrahydro-1H-pyrrolo[3,2-h]-isoquinoline-2,3-dione-3-oxime], the IC50 on AMPA receptor turned out to be 40 nM; in experiment [1] it was 30 nM.

For the origin of these results see patent US5801174A, “Fused indole and quinoxaline derivatives, their preparation and use” (Neurosearch A/S, priority 1994, dated 1998).
